Assay results taken from ChEMBL document CHEMBL4000225, “A matrix-focused structure-activity and binding site flexibility study of quinolinol inhibitors of botulinum neurotoxin serotype A” (Bioorg Med Chem Lett, 2017).
Active and inactive are the calls of the source. No cut-off for these calls is given here.

Legend:
[1] = target: Botulinum neurotoxin type A (Clostridium botulinum, UniProt P0DPI0); assay: Inhibition of protease activity of recombinant full length Clostridium botulinum Hall BoNT/A light chain using SNAP-25 peptide (187 to 203 residues) as substrate after 5 mins by HPLC analysis; design: species or system Clostridium botulinum A str. Hall
Botulinum neurotoxin type A, sequence (P0DPI0 2-448 limits assumed): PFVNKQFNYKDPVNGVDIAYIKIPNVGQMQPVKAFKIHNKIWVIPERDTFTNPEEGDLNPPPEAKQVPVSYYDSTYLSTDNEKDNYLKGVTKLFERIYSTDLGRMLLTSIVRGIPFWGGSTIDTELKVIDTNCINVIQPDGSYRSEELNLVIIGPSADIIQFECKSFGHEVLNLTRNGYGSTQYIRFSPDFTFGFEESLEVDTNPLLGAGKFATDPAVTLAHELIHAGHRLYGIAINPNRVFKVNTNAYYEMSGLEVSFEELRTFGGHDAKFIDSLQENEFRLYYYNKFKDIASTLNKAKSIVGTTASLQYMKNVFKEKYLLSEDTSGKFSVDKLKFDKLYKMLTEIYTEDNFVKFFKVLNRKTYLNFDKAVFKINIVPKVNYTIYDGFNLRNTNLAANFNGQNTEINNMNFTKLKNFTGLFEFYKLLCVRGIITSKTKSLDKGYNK

[2] = target: Botulinum neurotoxin type A (Clostridium botulinum) (UniProt P0DPI0); assay: (§1) Inhibition of Clostridium botulinum Hall BoNT/A light chain-induced paralysis in CD1 mouse phrenic nerve diaphragm assessed as compound concentration required to cause delay in time to 50% loss of twitch tension evoked by nerve stimulation preincubated with BoNT/A light chain for 15 to 20 mins followed by addition to diaphragm; conditions: Clostridium botulinum A str. Hall
Botulinum neurotoxin type A (Clostridium botulinum), sequence (P0DPI0 2-448 limits assumed): as above

[3] = target: Botulinum neurotoxin type A (Clostridium botulinum) (UniProt P0DPI0); assay: as §1, with “stimulation at 20 uM” for “stimulation”; conditions: Clostridium botulinum A str. Hall

| SMILES | IC50 [1] [nM] | Activity [2] [µM] | inhibition [3] |
| --- | --- | --- | --- |
| Nc1ccccn1 [2-AMINOPYRIDINE] | 1800 |  |  |
| Oc1c(C(Nc2ccccn2)c2ccc(F)cc2F)cc(Cl)c2cccnc12 (stereo not drawn) | 700 | 20 |  |
| Oc1cccc2cccnc12 [OXYQUINOLINE] | 3900 |  |  |
| Oc1c(C(Nc2ccccn2)c2ccc(F)cc2)cc(Cl)c2cccnc12 (stereo not drawn) | 600 | 20 |  |
| Oc1c(C(Nc2ncccn2)c2ccc(F)cc2)ccc2cccnc12 (stereo not drawn) | 1700 | 20 |  |
| Oc1c(C(Nc2cccnc2)c2ccc(F)cc2)ccc2cccnc12 (stereo not drawn) | 4600 | 2 |  |
| Oc1c(C(Nc2ncccn2)c2ccccc2F)ccc2cccnc12 (stereo not drawn) | 1900 |  | inactive |
| Oc1c(C(Nc2cccnc2)c2ccccc2F)cc(Cl)c2cccnc12 (stereo not drawn) | 700 | 2 |  |
| Cc1ccc2ccc(C(Nc3cccnc3)c3ccccc3)c(O)c2n1 (stereo not drawn) |  | 20 |  |
| O=Cc1ccccc1 [BENZALDEHYDE] | 2900 |  |  |
| Oc1c(C(Nc2cccnc2)c2ccc(F)cc2F)ccc2cccnc12 (stereo not drawn) | 4400 | 20 |  |
| Cc1ccc2ccc(C(Nc3cccnc3)c3ccc(F)cc3)c(O)c2n1 (stereo not drawn) |  | 20 |  |
| Oc1ccc(Cl)c2cccnc12 [CLOXYQUIN] | 1900 |  |  |
| Cc1ccc2cccc(O)c2n1 [8-HYDROXY QUINALDINE] | 3900 |  |  |
| Oc1c(C(Nc2ncccn2)c2ccc(F)cc2)cc(Cl)c2cccnc12 (stereo not drawn) | 700 | 20 |  |
| Oc1c(C(Nc2ccccn2)c2ccc(F)cc2)ccc2cccnc12 (stereo not drawn) | 4100 | 2 |  |
| O=Cc1ccc(F)cc1 | 2300 |  |  |
| Cc1ccc2ccc(C(Nc3ccccn3)c3ccc(F)cc3)c(O)c2n1 (stereo not drawn) | 1600 | 20 |  |
| Oc1c(C(Nc2cccnc2)c2ccc(F)cc2)cc(Cl)c2cccnc12 (stereo not drawn) | 2300 | 2 |  |
| Oc1c(C(Nc2cccnc2)c2ccc(F)cc2F)cc(Cl)c2cccnc12 (stereo not drawn) | 600 | 20 |  |
| Oc1c(C(Nc2ccccn2)c2ccccc2)cc(Cl)c2cccnc12 (stereo not drawn) | 1500 | 2 |  |
| O=Cc1ccc(F)cc1F | 4900 |  |  |
| Oc1c(C(Nc2ccccn2)c2ccccc2F)cc(Cl)c2cccnc12 (stereo not drawn) | 1400 | 20 |  |

| SMILES | IC50 [1] [nM] | Activity [2] [µM] | inhibition [3] |
| --- | --- | --- | --- |
| Oc1c(C(Nc2ncccn2)c2ccccc2F)cc(Cl)c2cccnc12 (stereo not drawn) | 4000 | 2 |  |
| Oc1c(C(Nc2ccccn2)c2ccccc2F)ccc2cccnc12 (stereo not drawn) | 1200 | 20 |  |
| Nc1cccnc1 | 3300 |  |  |
| Nc1ncccn1 | 4600 |  |  |
| Oc1c(C(Nc2cccnc2)c2ccccc2)cc(Cl)c2cccnc12 (stereo not drawn) | 3500 | 2 |  |
| Oc1c(C(Nc2ncccn2)c2ccc(F)cc2F)cc(Cl)c2cccnc12 (stereo not drawn) | 2200 |  | inactive |
| O=Cc1ccccc1F | 2800 |  |  |
| Cc1ccc2ccc(C(Nc3ccccn3)c3ccc(F)cc3F)c(O)c2n1 (stereo not drawn) | 2700 | 20 |  |
| Cc1ccc2ccc(C(Nc3cccnc3)c3ccc(F)cc3F)c(O)c2n1 (stereo not drawn) | 12300 | 2 |  |
| Oc1c(C(Nc2ncccn2)c2ccccc2)cc(Cl)c2cccnc12 (stereo not drawn) | 4500 | 2 |  |
| Cc1ccc2ccc(C(Nc3ncccn3)c3ccc(F)cc3F)c(O)c2n1 (stereo not drawn) | 4300 |  | inactive |
| Cc1ccc2ccc(C(Nc3cccnc3)c3ccccc3F)c(O)c2n1 (stereo not drawn) | 700 | 20 |  |
| Oc1c(C(Nc2ncccn2)c2ccc(F)cc2F)ccc2cccnc12 (stereo not drawn) | 12700 |  | inactive |
| Oc1c(C(Nc2cccnc2)c2ccccc2)ccc2cccnc12 (stereo not drawn) | 6200 | 20 |  |
| Oc1c(C(Nc2ccccn2)c2ccc(F)cc2F)ccc2cccnc12 (stereo not drawn) | 3600 | 20 |  |
| Oc1c(C(Nc2ccccn2)c2ccccc2)ccc2cccnc12 (stereo not drawn) |  | 10 |  |
| Cc1ccc2ccc(C(Nc3ncccn3)c3ccccc3)c(O)c2n1 (stereo not drawn) | 4600 |  | inactive |
| Cc1ccc2ccc(C(Nc3ccccn3)c3ccccc3F)c(O)c2n1 (stereo not drawn) | 1400 | 2 |  |
| Oc1c(C(Nc2ncccn2)c2ccccc2)ccc2cccnc12 (stereo not drawn) | 2700 |  | inactive |
| Oc1c(C(Nc2cccnc2)c2ccccc2F)ccc2cccnc12 (stereo not drawn) |  | 10 |  |
| Cc1ccc2ccc(C(Nc3ncccn3)c3ccccc3F)c(O)c2n1 (stereo not drawn) | 12000 |  | inactive |
| Cc1ccc2ccc(C(Nc3ncccn3)c3ccc(F)cc3)c(O)c2n1 (stereo not drawn) | 4200 | 20 |  |
| Cc1ccc2ccc(C(Nc3ccccn3)c3ccccc3)c(O)c2n1 (stereo not drawn) | 700 | 2 |  |
